{
  "source": "paper PMC11474028",
  "about": "“Lipopeptide antibiotics disrupt interactions of undecaprenyl phosphate with UptA” (Proceedings of the National Academy of Sciences of the …, 2024)",
  "key": {"[1]": {"biological_target": "T1, UptA (Bacillus subtilis, UniProt O31823)", "T1 sequence (O31823 whole entry)": "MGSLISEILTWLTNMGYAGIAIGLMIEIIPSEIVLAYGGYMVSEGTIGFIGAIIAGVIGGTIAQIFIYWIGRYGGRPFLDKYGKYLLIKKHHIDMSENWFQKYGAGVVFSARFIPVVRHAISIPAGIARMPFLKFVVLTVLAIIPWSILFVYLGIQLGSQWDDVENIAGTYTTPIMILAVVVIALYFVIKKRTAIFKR", "test": "biochemical", "format": "binding", "settings": "for binding to UptA by lipid chain length (in words): 4 µM UptA, 10-fold molar excess (40 µM) of lipid, pH 8.0, 200 mM ammonium acetate, 0.05% LDAO", "description": "We explored the binding affinity of UptA toward C55-P by recording mass spectra for solutions containing 2.5 µM UptA and 0 to 40 µM C55-P in 200 mM ammonium acetate, 0.05% LDAO at pH 8.0. […] Further increase in the concentration of C55-P enhanced the intensity of the UptA:C55-P complex, together with the emergence of additional binding events (Fig. 2A). We deconvoluted the spectra ([34]) to extract mean relative intensities of bound and unbound forms of UptA in the spectral series.\nTo investigate the binding selectivity of UptA for monophosphate (C55-P) versus diphosphate (C55-PP) forms of the lipid carrier, we performed comparative binding assays. First, we recorded mass spectra for a mixture of UptA with increasing concentrations of C55-PP (SI Appendix, Fig. S3). […] We then fit the data to Hill equation to obtain an apparent Kd for this system.\nUptA is a member of the DedA family of transporters whose cellular functions are potentially driven by proton-motive force and provide conditional fitness to bacteria under alkaline conditions ([25], [26], [36]). […] To this end, we equilibrated C55-P with UptA at a protein/ligand molar ratio of 1:4 in a buffer of the same composition but at pH 8.0 and 5.0. […] As a negative control, we tested for pH sensitivity of C55-P binding to MraY, the latter being the downstream enzyme in the peptidoglycan pathway that couples UM5 to C55-P. To this end, we equilibrated MraY and C55-P at a molar ratio of 1:4 in a buffer of pH 8.0 and pH 5.0.\nNext, we investigated the chain length selectivity of UptA by testing its interaction with geranylgeranyl phosphate (C20-P), hexaprenyl phosphate (C30-P), and C55-P; the latter representing the native form of the lipid carrier in the model organisms B. subtilis and E. coli ([39]). For this experiment, we incubated 4 µM UptA with a 10-fold molar excess of C20-P, C30-P, and C55-P at pH 8.0 and recorded spectra under the same conditions. […] The length and stereochemistry of lipid tails can influence their interactions with membrane proteins ([40]).\n(§1) Detailed experimental procedures are provided in SI Appendix. Briefly, UptA (wild type and mutants) was expressed in E. coli C43(DE3) cells (Lucigen) with GFP fusion on the C-terminus and solubilized from the membrane fraction by n-dodecyl-β-D-maltopyranoside (DDM). After purification by affinity chromatography, the GFP was cleaved by TEV protease and removed, and UptA was further purified by size-exclusion chromatography in a buffer containing 20 mM Tris-HCl (pH 8.0), 200 mM NaCl, 0.02% DDM. Before measurements, proteins were buffer-exchanged into 0.05% LDAO, 200 mM ammonium acetate at the desired pH using a centrifugal buffer exchange device (Micro Bio-Spin 6, Bio-Rad). Stock solutions of lipids were prepared from chloroform/methanol solution by evaporating aliquots of known volume in a SpeedVac. After drying, the lipid films were weighed and resuspended to a final concentration of 0.5 mM in 200 mM ammonium acetate and 0.05% LDAO by vertexing."}, "[2]": {"biological_target": "T1, UptA", "test": "Native MS of phospholipid binding to UptA", "settings": "for UptA-lipid complexes formed (stoichiometry, in words): 4 µM UptA with 10 µM lipid, native MS", "description": "Proteins belonging to the DedA family are a widespread family of transporters and are proposed to flip diverse lipids, including carrier lipids and membrane phospholipids. We therefore probed the interaction of UptA with membrane phospholipids to understand whether the latter could modulate its function. For this purpose, we selected anionic phosphatidylglycerols (PG) and zwitterionic phosphatidylethanolamines (PE), representing the major classes of phospholipid headgroups found in B. subtilis ([41], [42]). We recorded mass spectra of solutions containing 4 µM UptA incubated with 10 µM a15:0-i15:0 PE and 10 µM a15:0-i15:0 PG (a15:0, anteiso-pentadecanoic acid; i15:0, iso-pentadecanoic acid). The fatty acid composition of these lipids closely mimics those of native B. subtilis lipids (see below). The resulting spectra display peaks corresponding to UptA in apo and lipid-bound forms in both cases (Fig. 4 A and B). […] We therefore hypothesize that UptA interacts more favorably with PG than with PE.\nTo verify the lipid binding preference of UptA with more native-like lipids, we prepared lipid extracts from B. subtilis membranes (Materials and Methods). We then incubate an aliquot of the resulting crude lipids (SI Appendix, Fig. S8) with UptA. The spectra yielded peaks assigned to UptA in complex with cardiolipins (~1,326 Da) and a range of phospholipids, predominantly 694 Da, 721 Da, 748 Da, and 776 Da species (Fig. 4 D and E). To identify these lipids, we performed tandem MS/MS, isolating the lipid species and subjecting it to collisional activation. […] The fatty acid fragments are mixed populations, predominantly 15:0-15:0, 15:0-17:0, 16:0-16:0, and 16:0-18:1 (SI Appendix, Fig. S9) which are the typical fatty acids from B. subtilis membrane phospholipids ([42]). We therefore conclude that UptA interacts more favorably with the anionic cardiolipins and phosphatidylglycerols than with the zwitterionic phosphatidylethanolamines in the membrane lipid extracts.\nas §1, with “vertexing. Stock solutions of 0.5 mM amphomycin, aspartocin D, daptomycin, polymyxin B, polymyxin E, and bacitracin were made in the same buffer. All experiments were repeated three times from newly prepared stock solutions. Native mass spectrometry was performed on a Q-Exactive hybrid quadrupole-Orbitrap mass spectrometer (Thermo Fisher Scientific, Bremen, Germany), and lipid identification was performed on an Orbitrap Eclipse Tribrid mass spectrometer (Thermo). […]” for “vertexing.”\nLipid extracts from B. Subtilis\nB. subtilis strain 168 (ATCC 23857) was cultivated in […] LB media at 37 °C until OD600 nm 1.2 under aurobic conditions. Cells were harvested by centrifugation at 4,000 g for 20 minutes and resuspended in 20 mM Tris-HCl (pH 8.0), 150 mM NaCl. Cells were lysed by 5-6 passes through a microfluidizer at 20,000 psi. The lysates were clarified by centrifugation at 4,000 g for 10 minutes, and the totoal membrane was pelleted at 120,000 g for 1 h. The membrane pellet was ressupended […]"}, "[3]": {"biological_target": "T1, UptA", "test": "Native MS of antibiotic binding to UptA", "settings": "2.5 µM UptA, 10 µM C55-P, antibiotic up to 100 µM (polymyxins 100 µM), 0.05% LDAO, 200 mM ammonium acetate, 75 V", "description": "We next investigate how UptA and its complex with C55-P interact with a range of cell-wall targeting antibiotics including the lipopeptides daptomycin and amphomycin. […] We investigated whether daptomycin affects C55-P binding to UptA by recording spectra for solutions containing 2.5 µM UptA, 10 µM C55-P, and different concentrations of daptomycin.\n(§2) Amphomycin and derivatives are known to kill bacteria by forming complexes with free C55-P ([46]), however, whether or not this involves a direct interaction with a protein cellular target is not known. We therefore investigated how amphomycin affects the UptA:C55-P complex. We recorded spectra for solutions containing 2.5 µM UptA, 10 µM C55-P and then equilibrated aliquots with increasing concentrations of amphomycin.\nThe amphiphilic nature of daptomycin and amphomycin raises the possibility that these lipopeptide antibiotics may promiscuously bind to UptA in a nonspecific manner. We probe this possibility by recording spectra for UptA:C55-P solutions in the presence of 100 µM polymyxin B and 100 µM polymyxin E. These polymyxins are membrane-disrupting lipopeptides that target the outer membrane lipopolysaccharides in Gram-negative bacteria ([47]) but without a known affinity for C55-P or UptA.\nTo this end, we prepared UptA:C55-P mixtures and then equilibrated aliquots with bacitracin and vancomycin.\nas §1, with “vertexing. Stock solutions of 0.5 mM amphomycin, aspartocin D, daptomycin, polymyxin B, polymyxin E, and bacitracin were made in the same buffer. All experiments were repeated three times from newly prepared stock solutions. Native mass spectrometry was performed on a Q-Exactive hybrid quadrupole-Orbitrap mass spectrometer (Thermo Fisher Scientific, Bremen, Germany), and lipid identification was performed on an Orbitrap Eclipse Tribrid mass spectrometer (Thermo). […]” for “vertexing.”"}, "[4]": {"system": "UptA:C55-P complex", "test": "Native MS of UptA:C55-P complex in the presence of antibiotics", "format": "binding, Bacillus subtilis", "settings": "2.5 µM UptA, 10 µM C55-P, 0 to 100 µM antibiotic, 75 V; mean of three independent replicates", "description": "as §2\n(A) Mass spectra (6+ charge state) for solutions containing 2.5 µM UptA and 10 µM C55-P incubated with 0 to 100 µM amphomycin. (B) Relative intensity of C55-P bound to UptA in the presence of amphomycin and daptomycin. The bar represents the mean of three independent replicates shown as data points and error bars are SD. […] (C) Fraction of C55-P bound to UptA in the presence of cell wall targeting antibiotics. Each sample contains 2.5 µM UptA, 10 µM C55-P and 100 µM of indicated antibiotic, and spectra were acquired using the same instrument settings and collisional activation of 75 V. The bar represents the mean of three independent replicates shown as data points, and the error bar represents SD. […]\nas §1, with “vertexing. Stock solutions of 0.5 mM amphomycin, aspartocin D, daptomycin, polymyxin B, polymyxin E, and bacitracin were made in the same buffer. All experiments were repeated three times from newly prepared stock solutions. Native mass spectrometry was performed on a Q-Exactive hybrid quadrupole-Orbitrap mass spectrometer (Thermo Fisher Scientific, Bremen, Germany), and lipid identification was performed on an Orbitrap Eclipse Tribrid mass spectrometer (Thermo). […]” for “vertexing.”"}},
  "data": [
    {"molecule": "CC(C)=CCC/C(C)=C/CC/C(C)=C/CC/C(C)=C/COP(=O)(O)O", "note": "[C20-P, geranylgeranyl phosphate]", "values": [
      {"measurement": "binding to UptA by lipid chain length (in words)", "setting": "[1]", "value": "low-intensity peaks corresponding by mass to UptA:C20-P complexes, leaving most of the protein in the apo form"}
    ]},
    {"molecule": "CC(C)=CCCC(C)=CCCC(C)=CCCC(C)=CCCC(C)=CCCC(C)=CCOP(=O)(O)O", "note": "[C30-P, hexaprenyl phosphate]", "values": [
      {"measurement": "binding to UptA by lipid chain length (in words)", "setting": "[1]", "value": "higher binding affinity of UptA to C30-P compared to C20-P"}
    ]},
    {"molecule": "CC(C)=CCC/C(C)=C/CC/C(C)=C/CC/C(C)=C\\CC/C(C)=C\\CC/C(C)=C\\CC/C(C)=C\\CC/C(C)=C\\CC/C(C)=C\\CC/C(C)=C\\CC/C(C)=C\\COP(=O)(O)OP(=O)(O)O", "note": "[C55-PP, undecaprenyl diphosphate]", "values": [
      {"measurement": "selectivity of UptA for C55-P versus C55-PP (in words)", "setting": "[1]; native MS, 200 mM ammonium acetate, pH 8, 0.05% LDAO", "value": "UptA bind C55-PP but with lesser intensities compared to C55-P"},
      {"measurement": "Kd", "setting": "[1]; read-out: apparent Kd for the binding of one ligand molecule (1×) to UptA", "value": 15.3, "unit": "µM"}
    ]},
    {"molecule": "CCC(C)CCCCCCCCCCC(=O)OC[C@H](COP(=O)(O)OCCN)OC(=O)CCCCCCCCCCCC(C)C", "note": "(stereo partly shown) [a15:0-i15:0 PE]", "values": [
      {"measurement": "UptA-lipid complexes formed (stoichiometry, in words)", "setting": "[2]", "value": "only a 1:1 complex"}
    ]},
    {"molecule": "CC[C@@H](C)CCCCCCCCCCC(=O)OC[C@H](COP(=O)([O-])OCC(O)CO)OC(=O)CCCCCCCCCCCC(C)C.[Na+]", "note": "(stereo partly shown) [a15:0-i15:0 PG]", "values": [
      {"measurement": "mean relative intensity of UptA in complex with phospholipid, comparison (in words)", "setting": "[2]; 4 µM UptA with 10 µM lipid (stated for a15:0-i15:0 lipids), mean of three independent replicates", "value": "higher than for a15:0-i15:0 PE"},
      {"measurement": "UptA-lipid complexes formed (stoichiometry, in words)", "setting": "[2]", "value": "1:1 and 1:2 protein-lipid complexes"}
    ]},
    {"molecule": "polymyxin B", "values": [
      {"measurement": "binding of antibiotic to UptA (in words)", "setting": "[3]", "value": "do not bind to UptA"},
      {"measurement": "effect of antibiotic on UptA:C55-P complex (in words)", "setting": "[4]", "value": "attenuation of C55-P binding to UptA (SI Appendix, Fig. S10), but this effect is less significant compared to the impact of amphomycin analogs"}
    ]},
    {"molecule": "polymyxin E", "values": [
      {"measurement": "binding of antibiotic to UptA (in words)", "setting": "[3]", "value": "do not bind to UptA"},
      {"measurement": "effect of antibiotic on UptA:C55-P complex (in words)", "setting": "[4]", "value": "attenuation of C55-P binding to UptA (SI Appendix, Fig. S10), but this effect is less significant compared to the impact of amphomycin analogs"}
    ]},
    {"molecule": "vancomycin", "values": [
      {"measurement": "binding of antibiotic to UptA (in words)", "setting": "[3]", "value": "bind to UptA but with very low intensities"},
      {"measurement": "effect of antibiotic on UptA:C55-P complex (in words)", "setting": "[4]", "value": "no observable impact on C55-P binding"}
    ]}
  ]
}
